Read-outs that look alike come from different tables or passages of the source.
Columns and labels:
[1] = test system: FLT3; set-up: method as in PMID 15126317; details: cited from earlier work
[2] = test system: Aurora A auto-phosphorylation (Thr-288); test: Western blot, Aurora A auto-phosphorylation in nocodazole-synchronized MDA-MB-468 cells; type: cell-based, human; details: MDA-MB-468, nocodazole-synchronized, 2 h
Procedure: (§1) Cells were plated in 6 cm dishes at a density of 2 × 10^5 cells/dish. Aurora A activity was determined by measuring autophosphorylation of Aurora A on Thr288 in cells that were synchronized by treatment with nocodazole (100 ng/mL) for 20 h prior to the treatment with Aurora inhibitors, whereas Aurora B activity was determined by measuring phosphorylation of histone H3 on Ser-10 (p-HH3). […] Cells were harvested after 2 h of treatment and processed for SDS−PAGE and Western blotting.
(§2) Cells were harvested from experiments of ectopic expression or knockdown using siRNA or the treatment with the inhibitors, washed, and then lysed using lysis buffer as previously described. The protein concentration of the lysate was measured, and the lysate was mixed with gel electrophoresis loading buffer, boiled for 5 minutes, separated by SDS-PAGE, and transferred to nitrocellulose membranes.

[3] = test system: MDA-MB-468 cells; test: Soft agar anchorage-independent growth, MDA-MB-468; type: cell-based, human; details: for soft agar colonies: vehicle 131
Procedure: For analysis of anchorage-independent growth, log-phase growing cells were trypsinized, and triplicates of 1.5 × 10^3 cells per well were seeded in regular growth medium containing 0.3% agar (Sigma) and drug added at the indicated concentrations, as previously described. The cells were allowed to incubate at 37° C for 3 weeks and fed once per week with the inhibitor before 1 mg/ml MTT (Sigma) solution was added overnight to facilitate colony counting. Colonies were scored and counted according to size, as previously described.

[4] = test system: P-Histone H3; test: Western blot, phosphorylation of Histone H3 in HT-29 cells; type: cell-based, human
Procedure: as §1, §2

[5] = test system: MDA-MB-468 cells; test: Matrigel Transwell invasion, MDA-MB-468; type: cell-based, human; details: for invaded cells: vehicle 344
Procedure: Cells were transfected with Aurora A and JAK2 for 48 h or with siRNA for 72 h or treated with the compounds for 24 h and then were trypsinized and resuspended in serum-free medium and placed in the upper chamber of the Matrigel-coated (0.8 μg/μL, BD Biosciences, San Diego, CA) Transwell insert (from 2 to 5 × 10^4 cells/well) and with 0.5% DMSO or the compounds at the indicated dose. Medium containing 10%FBS was placed in the lower chamber. […] Invading cells in the membrane were fixed with 100% methanol and stained with fresh prepared 0.2% crystal violet. Noninvasive cells in the upper chamber were removed by wiping the upper side of the membrane with a cotton swab, and cells located on the underside of the filter were observed and photographed under Olympus stereo microscope. The number of invading cells was counted using Image-Pro analysis software.

[6] = test system: HT-29 cells; test: Matrigel Transwell invasion, HT-29; type: cell-based, human; details: for invaded cells: vehicle 1066
From the text: Medium containing 10%FBS was placed in the lower chamber. […] Invading cells in the membrane were fixed with 100% methanol and stained with fresh prepared 0.2% crystal violet. Noninvasive cells in the upper chamber were removed by wiping the upper side of the membrane with a cotton swab, and cells located on the underside of the filter were observed and photographed under Olympus stereo microscope. The number of invading cells was counted using Image-Pro analysis software.

[7] = test system: P-Histone H3 (Ser-10), Aurora B substrate; test: Western blot, phosphorylation of Histone H3 in MDA-MB-468 cells; type: cell-based, human; details: for effect on phosphorylation of Histone H3 (Ser-10): MDA-MB-468, increasing concentrations, 2 h
Procedure: as §1, §2

[8] = test system: PARP cleavage and Caspase 3 activation in MDA-MB-468 cells; test: Apoptosis by Western blot of PARP cleavage and Caspase 3 activation, MDA-MB-468; type: cell-based, human; details: MDA-MB-468, single agent, low concentration
Procedure: Cells were harvested from experiments of ectopic expression or knockdown using siRNA or the treatment with the inhibitors, washed, and then lysed using lysis buffer as previously described. The protein concentration of the lysate was measured, and the lysate was mixed with gel electrophoresis loading buffer, boiled for 5 minutes, separated by SDS-PAGE, and transferred to nitrocellulose membranes. […] To evaluate the effect of inhibitors on cell cycle progression, cells were treated with inhibitors at indicated dose or DMSO control and then harvested, fixed with 70% ethanol pretreated with RNase, and stained with propidium iodide (PI) (Sigma) as previously described for flow cytometry analysis. For the detection of apoptosis, cells were cultured for 24 h in medium with inhibitors at indicated dose or DMSO control and harvested for SDS-PAGE and Western blotting. The siRNA or drug treatment-induced apoptosis was detected by Western blot analysis of the cleavage of PARP and caspase-3.

[9] = test system: HT-29 cells; test: Soft agar anchorage-independent growth, HT-29; type: cell-based, human; details: for soft agar colonies: vehicle 129
Procedure: The cells were allowed to incubate at 37° C for 3 weeks and fed once per week with the inhibitor before 1 mg/ml MTT (Sigma) solution was added overnight to facilitate colony counting. Colonies were scored and counted according to size, as previously described.

[10] = test system: P-STAT3 (Y705), JAK2 substrate; test: Western blot, phosphorylation of STAT3 in MDA-MB-468 cells; type: cell-based, human
Procedure: as §1, §2

[11] = test system: MDA-MB-468 cells; test: Anchorage-dependent proliferation, MTT assay, MDA-MB-468; type: cell-based; details: Homo sapiens, 48 h; for IC50: MDA-MB-468, MTT
Procedure: (§3) Cells were cultured in 96 well plates at a density of 2,000 cells/ well. The cells with siRNA transfection or with the inhibitor treatment were monitored for viability using MTT at indicated time points. At the given time points, MTT reagent was added to the media and allowed to incubate for 3 h at 37° C in a humidified incubator at 5% CO2. The medium was then removed and MTT crystals were dissolved in DMSO (Sigma). Cell viability was quantified by reading the plates at an absorbance of 540 nm on a μQuant microplate reader using KC4 data analysis software (Bio-Tek Instruments). The 540 nm absorbance of vehicle-treated wells was used to define 100% proliferation. Each condition was performed in replicates of six wells.

[12] = test system: P-STAT3; test: Western blot, phosphorylation of STAT3 in HT-29 cells; type: cell-based, human
Procedure: as §1, §2

[13] = test system: HT29 cells; test: Anchorage-dependent proliferation, MTT assay, HT29; type: cell-based; details: Homo sapiens; for IC50: HT29, MTT
Procedure: as §3

[14] = Homo sapiens, MDA-MB-468, Ruxolitinib 30 μM
[15] = Homo sapiens, MDA-MB-468, Alisertib 0.5 μM

## N#CC[C@H](C1CCCC1)n1cc(-c2ncnc3[nH]ccc23)cn1 [Ruxolitinib]
[2]
  effect on auto-phosphorylation of Aurora A: not that of Histone H3 or the auto-phosphorylation of Aurora A
[3]; [14]
  inhibition at 30 µM: 23.7%
[3]; MDA-MB-468, Ruxolitinib 30 μM
  soft agar colonies: 100 colonies
[4]; HT-29, Ruxolitinib 20 μM
  effect on P-Histone H3: not P-Histone H3
[5]; [14]
  inhibition at 30 µM: 48.6%
[5]; MDA-MB-468, Ruxolitinib 30 μM
  invaded cells: 177 cells
[6]; HT-29, Ruxolitinib 40 μM
  invaded cells: 305 cells
[6]; Homo sapiens, HT-29, Ruxolitinib 40 μM
  inhibition at 40 µM: 71.4%
[7]; MDA-MB-468, Ruxolitinib 30 μM
  effect on P-Histone H3: not P-Histone H3
[7]
  effect on phosphorylation of Histone H3 (Ser-10): not that of Histone H3
[8]; e.g. Ruxolitinib 0.4 μM
  PARP cleavage: neither Alisertib nor Ruxolitinib induced PARP cleavage
[9]; HT-29, Ruxolitinib 20 μM
  soft agar colonies: 72 colonies
[9]; Homo sapiens, HT-29, Ruxolitinib 20 μM, read-out: inhibition of soft agar colonies
  inhibition at 20 µM: 44.2%
[10]
  effect on P-STAT3: inhibited P-STAT3
  effect on phosphorylation of STAT3 (Y705): able to inhibit the phosphorylation of STAT3
[11]
  IC50: 26 µM
[11]; MDA-MB-468, Ruxolitinib 35 μM
  inhibition at 35 µM: 51.2%
[12]; HT-29, Ruxolitinib 20 μM
  effect on P-STAT3: inhibited P-STAT3
[13]; HT-29, 48 h
  IC50: 44.7 µM
[13]; HT-29, HT29, Ruxolitinib 20 μM, 48 h
  inhibition at 20 µM: 14.3%

## COc1cc(Nc2ncc3c(n2)-c2ccc(Cl)cc2C(c2c(F)cccc2OC)=NC3)ccc1C(=O)O [Alisertib]
[2]
  effect on auto-phosphorylation of Aurora A: highly effective at inhibiting
[3]; [15]
  inhibition at 0.5 µM: 49%
[3]; MDA-MB-468, Alisertib 0.5 μM
  soft agar colonies: 67 colonies
[4]; HT-29, Alisertib 2 μM
  effect on P-Histone H3: inhibited P-Histone H3
[5]; [15]
  inhibition at 0.5 µM: 24.5%
[5]; MDA-MB-468, Alisertib 0.5 μM
  invaded cells: 260 cells
[6]; HT-29, Alisertib 4 μM
  invaded cells: 384 cells
[6]; Homo sapiens, HT-29, Alisertib 4 μM
  inhibition at 4 µM: 64%
[7]; MDA-MB-468, Alisertib 0.5 μM
  effect on P-Histone H3: inhibited P-Histone H3
[7]
  effect on phosphorylation of Histone H3 (Ser-10): highly effective at inhibiting
[8]; e.g. Alisertib 0.03 μM
  PARP cleavage: neither Alisertib nor Ruxolitinib induced PARP cleavage
[9]; HT-29, Alisertib 2 μM
  soft agar colonies: 56 colonies
[9]; Homo sapiens, HT-29, Alisertib 2 μM, read-out: inhibition of soft agar colonies
  inhibition at 2 µM: 56.6%
[10]; MDA-MB-468, Alisertib 0.5 μM
  effect on P-STAT3: not P-STAT3
[11]; MDA-MB-468, Alisertib 0.05 μM
  inhibition at 0.05 µM: 25.4%
[11]
  IC50: 0.07 µM
[12]; HT-29, Alisertib 2 μM
  effect on P-STAT3: not P-STAT3
[13]; HT-29, 48 h, read-out: inhibition of proliferation
  inhibition at 0.05 µM: 5%
[13]; HT-29, 48 h
  IC50: 2 µM

From paper PMC4102782, “Dual Aurora A and JAK2 kinase blockade effectively suppresses malignant transformation” (Oncotarget, 2014)
